Results from US5093370A, “Quaternary ammonium compounds having muscle relaxation activity” (priority 1989, dated 1992).

Assays:
[1] = system: neuromuscular preparations (hemiinterseptum neuromuscule); test: Muscle relaxation action under a diabetic condition (neuromuscular preparations from alloxan-treated mice); type: cell-based; settings: Mus musculus; alloxan diabetic ddY mice 8 to 11 weeks old, blood glucose 310 to 460 mg/dl; parentheses: 90% reliance
Method: (§1) To prepare neuromuscular preparations ddY mice 6 to 10 weeks old weighing 27.0 to 42.0 g were decapitated, venesected, and the hemiinterseptum neuromuscule was removed. This preparation was suspended by applying 1 gram of a strain in Krebs-Henseleit's solution at 36 ±1° C., through which a mixed gas of carbon dioxide/oxygen (5:95) was passed, an electric shock (0.4 to 0.5V, 0.2 Hz, […].) was applied to the nerve by platinum electrodes, and the resulting short contraction reaction was detected by an isometric transducer (Nippon Koden Sha, Japan) and recorded by a biophysiograph system (San-Ei, Japan). An average of 12 contraction height data obtained one minute prior to the administration of a test compound was used as a control. The test compound was accumulatively administered at two minute intervals, and the contraction height two minutes after each administration was compared with the control, to calculate the percentage of inhibition. To ensure the reliability of the tests, usually four measurements were used for each administration.
Muscle relaxation action under a diabetic condition IC50
Alloxan monohydrate (Nakarai Kagaku, Japan) was administered to the tail vein of ddY mice 4 to 5 weeks old, in a dose of 85 mg/kg, and the blood glucose level was monitored starting at the 28th day, by a glucose analyzer from the administration of alloxan (Bechmann Type II). Mice 8 to 11 weeks old and weighing 19.0 to 36.0 g, and having a blood glucose level of 310 to 460 mg/dl, were chosen and used to prepare neuromuscular preparations as described above.

[2] = system: neuromuscular preparations (hemiinterseptum neuromuscule); test: Muscle relaxation action: inhibition of nerve-evoked contraction of mouse neuromuscular preparation; type: cell-based, ddY mice; settings: read-out: Muscle relaxation action IC50 (90% reliance)
Method: Muscle relaxation action IC50)
as §1, with “administration. The IC50 value was obtained on a line linearized by the method of least […] from a scope from a 10 to 60% inhibition in a log dose-inhibition curve.” for “administration.”

[3] = ddY mice 6 to 10 weeks old, Krebs-Henseleit's solution, 36 ±1° C., contraction height two minutes after each cumulative administration, parentheses: 90% reliance

Row | SMILES | IC50 [1] | IC50 [2, 3] | IC50 [2]
1 | C[N+](C)(C)CCCCCCCCCC[N+](C)(C)C [Decamethonium, reference compound] | 131 µM | 101 µM | 
2 | C[N+](C)(C)CCCCc1ccc(CCCC[N+](C)(C)C)cc1 [Example 1, 1,4-Bis(4-trimethylammoniobutyl)benzene diiodide] | 25.9 µM |  | 22.8 µM
3 | C[N+](C)(C)CCCC(=O)c1ccc(C(=O)CCC[N+](C)(C)C)cc1 [Example 2, 1,4-Bis(4-trimethylammoniobutyryl)benzene diiodide] | 32.7 µM |  | 26 µM
4 | C[N+](C)(C)CCCC(O)c1ccc(C(O)CCC[N+](C)(C)C)cc1 (stereo not shown) [Example 3, 1,4-Bis(1-hydroxy-4-trimethylammoniobutyl)benzene diiodide] |  | 209 µM | 
5 | CC(=O)OC(CCC[N+](C)(C)C)c1ccc(C(CCC[N+](C)(C)C)OC(C)=O)cc1 (stereo not shown) [Example 4, 1,4-Bis(1-acetoxy-4-trimethylammoniobutyl)benzene diiodide] |  |  | 450 µM
6 | CC[N+](CC)(CC)CCCc1ccc(CCC[N+](CC)(CC)CC)cc1 [Example 6, 1,4-Bis(3-triethylammoniopropyl)benzene diiodide] |  | 176 µM | 
7 | C[N+]1(CCCc2ccc(CCC[N+]3(C)CCCCC3)cc2)CCCCC1 [Example 7, 1,4-Bis3-(1-methyl-1-piperidinio)propyl]benzene dibromide] |  |  | 119 µM
8 | c1cc[n+](CCCc2ccc(CCC[n+]3ccccc3)cc2)cc1 [Example 8, 1,4-Bis[3-(1-pyridinio)propyl]benzene dibromide] |  | 207 µM | 
9 | CC[N+](CC)(CC)CCCCCc1ccc(CCCCC[N+](CC)(CC)CC)cc1 [Example 10, 1,4-Bis(5-triethylammoniopentyl)benzene diiodide] |  | 11.2 µM | 
10 | C[N+]1(CCCCCc2ccc(CCCCC[N+]3(C)CCCCC3)cc2)CCCCC1 [Example 11] |  | 60.7 µM | 
11 | C[N+](C)(C)CCOCc1ccc(COCC[N+](C)(C)C)cc1 [Example 12, 1,4-Bis(2-trimethylammonioethoxymethyl)benzene diiodide] |  |  | 750 µM
12 | C[N+](C)(C)CC(CCCc1ccc(CCCC(C[N+](C)(C)C)C[N+](C)(C)C)cc1)C[N+](C)(C)C [Example 13] |  | 1440 µM | 
13 | C[N+](C)(C)CCCCCCCCc1ccccc1 [Example 15, N,N,N-Trimethyl-8-phenyloctylammonium p-tosylate] |  | 252 µM | 
14 | C[N+](C)(C)CCCCc1cccc(CCCC[N+](C)(C)C)c1 [Example 16, 1,3-Bis(4-trimethylammoniobutyl)benzene diiodide] |  |  | 531 µM
15 | C[N+](C)(C)CCCCc1ccccc1CCCC[N+](C)(C)C [Example 17, 1,2-Bis(4-trimethylammoniobutyl)benzene diiodide] |  |  | 59.7 µM
16 | CC[N+](CC)(CC)CCCCc1ccc(CCCC[N+](CC)(CC)CC)cc1 [Example 18, 1,4-Bis(triethylammoniobutyl)benzene diiodide] | 51.1 µM | 52.4 µM | 
17 | C[N+]1(CCCCc2ccc(CCCC[N+]3(C)CCCCC3)cc2)CCCCC1 [Example 19, 1,4-Bis[4-(1-methyl-1-piperidinio)butyl]benzene dibromide] |  | 95.9 µM | 

Row | SMILES | IC50 [1] | IC50 [2, 3] | IC50 [2]
18 | C[N+](C)(C)CCCCCCc1ccc(CCCCCC[N+](C)(C)C)cc1 [Example 20, 1,4-Bis(6-trimethylammoniohexyl)benzene diiodide] | 21.7 µM |  | 15.9 µM
19 | CC[N+](CC)(CC)CCCCCCc1ccc(CCCCCC[N+](CC)(CC)CC)cc1 [Example 21, 1,4-Bis(6-triethylammoniohexyl)benzene diiodide] | 7.66 µM | 6.81 µM | 
20 | C[N+]1(CCCCCCc2ccc(CCCCCC[N+]3(C)CCCCC3)cc2)CCCCC1 [Example 22, 1,4-Bis[6-(1-methyl-1-piperidinio)hexyl]benzene dibromide] | 21.8 µM | 17.3 µM | 
21 | C[N+](C)(C)CCCCc1ccc(CCCC[N+](C)(C)C)c([N+](=O)[O-])c1 [Example 23, 1,4-Bis(4-trimethylammoniobutyl)-2-nitrobenzene diiodide] | 11.9 µM |  | 12.7 µM
22 | C[N+](C)(C)CCC#Cc1ccc(C#CCC[N+](C)(C)C)cc1 [Example 25, 1,4-Bis(4-trimethylammonio-1-butynyl)benzene diiodide] |  |  | 110 µM
23 | CC[N+](CC)(CC)CCCCCCc1ccc(CCCCCC[N+](CC)(CC)CC)c([N+](=O)[O-])c1 [Example 26, 1,4-Bis(6-triethylammoniohexyl)-2-nitrobenzene diiodide] |  | 4.52 µM | 
24 | CC[N+](CC)(CC)CCCCCCCc1ccc(CCCCCCC[N+](CC)(CC)CC)cc1 [Example 27, 1,4-Bis(7-triethylammonioheptyl)benzene diiodide] |  | 5.96 µM | 
25 | C[N+](C)(C)CCCSc1ccc(SCCC[N+](C)(C)C)cc1 [Example 28, 1,4-Bis(3-trimethylammoniopropylthio)benzene diiodide] |  | 3.89 µM | 
26 | C[N+](C)(C)CCC[S+]([O-])c1ccc([S+]([O-])CCC[N+](C)(C)C)cc1 (stereo not shown) [Example 29, 1,4-Bis(3-trimethylammoniopropylsulfinyl)benzene diiodide] |  | 5.46 µM | 
27 | C[N+](C)(C)CCCS(=O)(=O)c1ccc(S(=O)(=O)CCC[N+](C)(C)C)cc1 [Example 30, 1,4-Bis(3-trimethylammoniopropylsulfonyl)benzene diiodide] |  | 9.44 µM | 
28 | C[N+](C)(C)CCCc1ccc2cc(CCC[N+](C)(C)C)ccc2c1 [Example 31, 2,6-Bis(3-trimethylammoniopropyl)naphthalene diiodide] |  | 186 µM | 
29 | CC[N+](CC)(CC)CCCc1ccc2cc(CCC[N+](CC)(CC)CC)ccc2c1 [Example 32, 2,6-Bis(3-triethylammoniopropyl)naphthalene diiodide] |  | 79.1 µM | 
30 | CC[N+](CC)(CC)CCCCCSc1ccc(SCCCCC[N+](CC)(CC)CC)cc1 [Example 33, 1,4-Bis(5-triethylammoniopentylthio)benzene diiodide] |  | 1.5 µM | 
31 | C[N+](C)(C)CCCc1ccc(-c2ccc(CCC[N+](C)(C)C)cc2)cc1 [Example 34, 4,4'-Bis(3-trimethylammoniopropyl)biphenyl diiodide] |  |  | 132 µM
32 | CC[N+](CC)(CC)CCCc1ccc(-c2ccc(CCC[N+](CC)(CC)CC)cc2)cc1 [Example 35, 4,4'-Bis(3-triethylammoniopropyl)biphenyl diiodide] |  | 24.9 µM | 
33 | CC[N+](CC)(CC)CCCCCCCCc1ccc(CCCCCCCC[N+](CC)(CC)CC)cc1 [Example 36, 1,4-Bis(8-triethylammoniooctyl)benzene diiodide] |  | 114 µM | 
34 | C[N+](C)(C)CCOC(=O)CCC(=O)OCC[N+](C)(C)C [Succinylcholine, reference compound] | 19.3 µM | 25.2 µM | 
